Source: US11278567B2, “Methods of modifying neuronal function by changing intracellular magnesium levels” (Neurocentria, Inc., priority 2016, dated 2022)
Values joined by “and” are separate entries in the source; they are usually repeats but may differ in a detail not shown here. Equal entries are not always repeated. “Also recorded” adds a separate entry of the source.

Experiments:
Assay type in all cases: cell-based, Sprague-Dawley rats
[1] = system: hippocampal CA3-CA1 pyramidal neurons; assay: In vitro immunofluorescence quantification of presynaptic proteins in terminals
Procedure: (§1) High-density primary cultures of hippocampal CA3-CA1 pyramidal neurons of neonatal Sprague-Dawley rats (<24 hr) were used in the current study, as described before (Slutsky et al., Neuron. 2004; 44(5):835-49). The neurons were cultured on 1 #coverslips (8 mm×8 mm) for 14-28 days in vitro (div) before use. [Mg^2+]o in culture medium was adjusted to different concentrations according to experimental designs. In each experiment, sister cultures from the same batch were always used for treatment and control conditions on the same day, and the experimental results were repeated using several different batches.
The neurons were fixed in 1×PBS (pH 7.4) containing 1% Paraformaldehyde (E.M.S.), 0.01% Glutaraldehyde (Alfa Aesar) and 4% Sucrose (Amresco) for 1 hr RT. […]
For FIG. 3B, the average density of immunoreactive puncta of a given AOI was calculated from the total puncta number divided by the total MAP2(+) area; the values from several AOIs were averaged to represent the average puncta density in a coverslip; for each data bar, the mean±SEM of these coverslips were presented. […] For FIGS. 5C and 5D, the mean fluorescence intensity per pixel in each cell body was measured (the somatic area of each cell body was measured from DIC image) and then the mean±SEM of all the cell bodies were presented. […]

[2] = system: hippocampal CA3-CA1 pyramidal neurons; assay: Functional terminal density (N5AP): FM dye vesicle turnover under 5AP bursts; details: for N5AP after blockade of axonal transport: 0.5 mM
Procedure: as §1
Vesicle turnover in response to bursting action potentials (see below) is a measure of the functional status of a presynaptic terminal. FM dyes were used to visualize the vesicle turnover of presynaptic terminals. In the current study, 10 μM FM1-43 or 20 μM FM4-64 (Biotium) was loaded under different patterns of field stimulations, such as 5AP bursts (5 action potentials (Aps) at 100 Hz for each burst, 6 bursts (30 APs totally) with 10 s inter burst interval were given) and “maximal stimulation” (600 APs at 10 Hz). Releasable fluorescence in the AOI (ΔF) was obtained from the difference of loading (F1) and unloading (F2) images, i.e. ΔF=F1−F2 (see FIG. 1A). For FIG. 3C, the loading/unloading procedures were performed under 5AP bursts and 600AP stimulation at the same area of network successively. Subsequently, the ΔF5AP and ΔF600AP images were registered to colocalize the vesicle turnover for these two stimulating protocols for individual terminals.
The functional terminal density (N5AP) at a dendritic branch was defined as the number of 5AP bursting stimulation induced FM(+) puncta (#FM5AP) per unit area of dendritic branch (A), N5AP=#FM5AP/A. […] immunofluorescence (IF) staining of MAP2 (as described below), which specifically presents in dendritic skeleton, was used to label dendritic area and A was calculated from MAP2(+) area. To limit the error of A introduced by the immunoreactivity of MAP2(+), the staining and imaging parameters were rigorously controlled in different batches of IF and the grey-scale histograms of MAP2(+) images were equalized before measuring A. Here, to ensure the equalized MAP2(+) marked area could reflect the real morphology of dendrites, the parameters of histogram equalization were set based on the comparison of MAP2(+) and DIC images. For most experiments, the average N5AP of an AOI was calculated from the total number of FM(+) puncta divided by total MAP2(+) area to reduce the sampling error. Then the mean N5AP of all AOIs (1-5 AOIs/coverslip) was used to represent the average N5AP in a coverslip; for each statistical data point, several coverslips were used and the mean±standard error of the mean (SEM) of all coverslips was represented (see figure legends). For FIGS. 3B and D, the FM(+) puncta density induced by 600AP stimulation was also calculated and presented in the same way as described above. Exceptionally, for FIG. 2B, each point represented the N5AP at a single segment of dendritic branch. In general, in an AOI (59 μm×59 μm, with varying dendritic density) 351-1598 presynaptic functional terminals could be detected by FM dyes for different experimental groups under 5AP bursting stimulation.

[3] = system: hippocampal CA3-CA1 pyramidal neurons; assay: Intracellular Mg2+ measurement with Magnesium Green-AM (MgGrn); details: for [Mg2+]i after blockade of axonal transport: 0.5 mM
Procedure: as §1
The mature cultures were incubated in Tyrode's solution with 2 μM Magnesium Green™-AM (MgGrn, an intracellular Mg^2+ indicator, Invitrogen) for 30 min and washed out for 20 min; both at 37° C. Fluorescent images of several AOIs in each coverslip were taken on FV300 at RT. In the current study, the MgGrn fluorescence at basal condition (without eliciting any AP stimulus) (FIG. 1A) was measured to eliminate any effects caused by AP-induced intracellular Ca^2+ fluctuations. Since the intracellular Ca^2+ concentration ([Ca^2+]i) at basal condition was usually <100 nM, the contribution of Ca^2+ to MgGrn fluorescence was very small. Thus, the fluorescent intensity of MgGrn could be considered proportional to [Mg^2+]i. Since the measured MgGrn fluorescence was also dependent on the local volume of branches in network, a physical model was built to describe this phenomenon and the calculating formula that corrected the effect of varying local volumes was derived.
In the experiments, given a randomly selected AOI of dendritic area (the image was obtained as described above), 50-100 branches were randomly selected from each AOI and the mean intensity of fluorescence (i.e. F(z)max) of each branch was measured. Meanwhile, the diameter of each branch (d) was measured from the DIC image, then the F(z)max/d was calculated to represent the [Mg^2+]i in the branch. The mean value of these 50-100 branches was calculated to represent the level of [Mg^2+]i in the AOI. […]

[4] = system: hippocampal CA3-CA1 pyramidal neurons; assay: Mitochondrial status assessment (JC-1 membrane potential, mitochondrial density)
Procedure: The neurons were cultured on 1 #coverslips (8 mm×8 mm) for 14-28 days in vitro (div) before use. [Mg^2+]o in culture medium was adjusted to different concentrations according to experimental designs.
For FIG. 7A, mitochondria were marked with 40 nM Mitoview633 (Biotium) for 15 min and then washed out in blank medium for 15 min, both at 37° C. For FIG. 6A, the membrane potential-sensitive fluorescent dye JC-1 (1 μM) (Invitrogen) was used. JC-1 was incubated for 15 min followed by a 15 min washout at 37° C. Fluorescent images were taken on FV300 confocal. Mitochondrial membrane potential (ΔΨ) of each mitochondrion was estimated by the ratio of fluorescence of aggregate versus monomer form of JC-1, i.e. Faggr/Fmono. JC-1 was excited by 488 nm laser and the emission spectra were collected at 510-575 nm and >575 nm at the same time separately. Then the ratio of fluorescence at >575 nm versus at 510-575 nm (Faggr/Fmono) was calculated for each individual mitochondrial punctum to represent the ΔΨ of that mitochondrion. To estimate the valid range of Faggr/Fmono, Faggr/Fmono of individual mitochondria was measured before and after administering 5 μM Carbonyl cyanide 4-(trifluoromethoxy)phenylhydrazone (FCCP) 5 min at the same AOI. […] Faggr/Fmono was calculated for each individual meaningful punctum and the mean value of population was calculated from all the puncta to represent the general ΔΨ in this AOI. 3-5 AOIs were measured for each coverslip and the mean of the AOIs were calculated to represent the average ΔΨ of the coverslip. For each bar or point in FIG. 6, several coverslips were used (described in legends). The density of mitochondria (Nmito) was also quantified by counting the number of JC-1-aggregate(+) fluorescent puncta (FIG. 6) or MitoView633(+) puncta (FIG. 7) per area of branches.

[5] = system: hippocampal CA3-CA1 pyramidal neurons; assay: Probability of transmitter release (Pr) in individual boutons, FM dye; details: [Mg2+]o elevated from 0.8 to 1.2 mM for four hours; single action potential input
Procedure: FIGS. 25Aa to 25B. Intracellular Mg^2+ is a negative regulator of Pr. (FIG. 25Aa-25Ac) Inverse relationship between Pr and intracellular Mg^2+ concentration ([Mg^2+]i) in individual boutons. For individual terminals, the higher the [Mg^2+]i, the lower the Pr. (FIG. 25Aa) [Mg^2+]i and Pr in individual boutons were determined by Magnesium Green (MgGrn) and FM4-64, respectively. (FIG. 25Ab) Pr was negatively associated with [Mg^2+]i in individual boutons in a synaptic network. (FIG. 25Ac) Pr was linearly correlated with 1/[Mg^2+]i. […] Extracellular Mg^2+ concentration ([Mg^2+]o) was elevated from 0.8 to 1.2 mM for four hours to increase [Mg^2+]i.
FIGS. 26A and 26B. (FIG. 26A) Representative DIC and FM1-43 images comparing presynaptic responses to single (“1AP”: 30AP0.5 Hz) and bursting (“5AP”: 6 groups of 5 APs at 100 Hz, ISI 10 sec) stimulus at low (0.8 mM) and high (1.2 mM) [Mg^2+]o. (FIG. 26B) Quantitative analysis of images from FIG. 26A. ***p<0.001. For methods see Slutsky et al, 2004, and Example 1. 2AP and 3AP refer to 6 groups of 2 APs at 100 Hz or 3 APs at 100 Hz, respectively.

[6] = elevating Mg2+ level for long term (>48 hr)

## COc1cc2c(c(OC)c1OC)-c1ccc(OC)c(=O)cc1[C@@H](NC(C)=O)CC2 [Colchicine]
[1]; 0.5 mM, as a function of blocking time, low and high [Mg2+]o
  concentration of presynaptic proteins in terminals: decrease; also recorded: decreased linearly
[2]; at the high [Mg2+]o condition
  N5AP after blockade of axonal transport: remarkable reduction
[2]; while increasing [Mg2+]o
  N5AP after blockade of axonal transport: prevented the increase
[3]; at the high [Mg2+]o condition
  [Mg2+]i after blockade of axonal transport: without change
[3]; while increasing [Mg2+]o
  [Mg2+]i after blockade of axonal transport: did not prevent elevation

## N#CC(C#N)=NNc1ccc(OC(F)(F)F)cc1 [FCCP, Carbonyl cyanide 4-(trifluoromethoxy)phenylhydrazone, reference compound]
[4]; 5 μM, 5 min, from 1.21±0.02 before
  mean Faggr/Fmono of all mitochondria (JC-1, ΔΨ): 0.26±0.002

## CN(C)CCCN1c2ccccc2CCc2ccccc21 [Imipramine]
[2]; 1 μM for 4 hr added to Ctrl ([Mg2+]o 0.8 mM), 5AP bursts
  functional terminal density (N5AP): increased
[2]; after 1 μM for 4 hr
  persistence of N5AP enhancement: ~32 h
[3]; 1 μM for 4 hr
  [Mg2+]i (MgGrn fluorescence): elevation

## [Mg+2] [Mg^2+]
[1]; high [Mg2+]o (1.2 4 hr) vs Ctrl 0.8
  increase in expression of Ca2+ sensor (SYT1) and coupling proteins in terminals: 30-44%
[5]
  probability of release (Pr): reduced
[2]; [Mg2+]o elevated from 0.8 to 1.2 mM for 4 hr
  terminals functional in response to 5AP bursts (of 600AP-releasable terminals): 90.6±2.9% and ~90%
[4]; elevating Mg2+ for 4 hr
  increase in mitochondrial membrane potential (ΔΨ): ~39%
[4]; elevating Mg2+ level for 4 hr
  increase in general mitochondrial function (Nmito×ΔΨ): ~68% and 67.8±12.4%
  increase in mitochondrial density (Nmito) in distal branches: ~20% and 19.4±2.9%
[4]; [6]
  increase in general mitochondrial function (Nmito×ΔΨ): 56.2±6.5%
  increase in mitochondrial density (Nmito) in distal branches: 19.6±2.1%
